The structures appear in SMILES notation.

A word on the logP: it is the decadic logarithm of the partition coefficient of the neutral form, usually between octanol and water. The compound `O=C(N[C@@H]1CC[C@@H]1F)c1ccccc1` came in with a logP of 1.57.

The compound `O=C(CCCC(F)F)Nc1ccccc1` returned a logP of 2.06.

In turn, `O=C(c1ccccc1)N1CCCC1C(F)(F)F` (stereo not given) yielded a logP of 2.12.

The compound `O=C(c1ccccc1)N1CCCC(C(F)(F)F)C1` (stereo not given) yielded a logP of 2.21.

`O=C(c1ccccc1)N1C[C@@H](F)[C@@H](F)C1` registered a logP of 1.01.

`O=C(NC1CC2(C1)CC(F)(F)C2)c1ccccc1` displayed a logP of 2.53.

In turn, `O=C(NCCCC(F)F)c1ccccc1` returned a logP of 1.76.

With `O=C(NCC(F)F)c1ccccc1`, the logP was determined as 1.37.

For `O=C(NCCCC(F)(F)F)c1ccccc1`, the lipophilicity (logP) was found to be 2.28.

In turn, `O=C(N[C@@H]1C[C@H]1C(F)F)c1ccccc1` had a log partition coefficient (logP) of 1.64.

In turn, `O=C(N[C@H]1C[C@@H](CF)C1)c1ccccc1` showed a logP of 1.77.

`O=C(Nc1ccccc1)[C@H]1C[C@H](F)C1` came in with a logP of 2.

For the compound `O=C(N[C@@H]1CC[C@H]1C(F)F)c1ccccc1`, the logP worked out at 1.94.

For the compound `O=C(Nc1ccccc1)C12CC(C(F)(F)F)(CO1)C2`, the logP is 2.05.

`O=C(Nc1ccccc1)[C@H]1C[C@H]1C(F)F` came in with a logP of 2.35.

`O=C(c1ccccc1)N1CC2CC(C1)CC(F)(F)C2`: the logP is 1.59.

As to `O=C(c1ccccc1)N1CC2CCC(C2)C1`, the logP is 2.31.

Regarding `O=C(c1ccccc1)N1CC(C(F)F)C1`, the log partition coefficient (logP) is 1.4.

In turn, `O=C(Nc1ccccc1)[C@H]1C[C@@H](C(F)(F)F)C1` yielded a logP of 2.72.

`O=C(c1ccccc1)N1CCCCC1C(F)F` (stereo not given) yielded a logP of 2.04.

In the case of `O=C(Nc1ccccc1)[C@@H]1CC[C@@H]1F`, the lipophilicity (logP) is 1.74.

As to `O=C(c1ccccc1)N1C[C@H](F)C[C@H](F)C1`, the lipophilicity (logP) is 0.58.

In the case of `O=C(Nc1ccccc1)C1CCCCCC1`, the lipophilicity (logP) is 3.24.

Consider `O=C(c1ccccc1)N1CC[C@@H](F)[C@@H](F)C1`, for which the logP turned out to be 1.15.

For the compound `O=C(c1ccccc1)N1CC2CCC1CC2`, the lipophilicity (logP) amounted to 2.01.

As for `O=C(NC1CCC(F)(F)C1)c1ccccc1` (stereo not given), the logP was found to be 2.02.

In turn, `O=C(N[C@H]1C[C@H](F)C1)c1ccccc1` had a logP of 1.71.

With `O=C(Nc1ccccc1)C1CCCCC1`, the logP is 2.88.

Compound `O=C(NC1CCCCCC1)c1ccccc1` gave a logP of 3.03.

In turn, `O=C(c1ccccc1)N1CCC(C(F)(F)F)CC1` came in with a logP of 2.2.

Compound `CCCCC(=O)Nc1ccccc1` had a logP of 2.29.

`O=C(c1ccccc1)N1CCCC1CF` (stereo not given): the logP came to 1.75.

`O=C(c1ccccc1)N1CC2CC(F)(F)CC(C1)C2(F)F` returned a logP of 1.84.

Regarding `O=C(Nc1ccccc1)C1CCCC1(F)F` (stereo not given), the logP was 2.25.

`O=C(NC1CCCCC1(F)F)c1ccccc1` (stereo not given) came in with a logP of 2.16.

Compound `O=C(N[C@H]1C[C@H]1C(F)(F)F)c1ccccc1` came in with a logP of 2.16.

`O=C(c1ccccc1)N1CC(CF)C1` displayed a logP of 0.93.

In turn, `CCNC(=O)c1ccccc1` displayed a logP of 1.31.

In the case of `O=C(N[C@H]1C[C@H](C(F)(F)F)C1)c1ccccc1`, the logP came out at 2.82.

With `O=C(NC1CC1(F)F)c1ccccc1` (stereo not given), the log partition coefficient (logP) worked out at 1.51.

Compound `O=C(NC1CCC(F)(F)CC1)c1ccccc1` showed a logP of 2.32.

Compound `O=C(c1ccccc1)N1CCC(CF)C1` (stereo not given) registered a logP of 1.4.

In turn, `O=C(Nc1ccccc1)[C@@H]1C[C@H]1CF` had a logP of 1.12.

`O=C(Nc1ccccc1)C1CC2(CCC2)C1` came in with a lipophilicity (logP) of 3.27.

With `O=C(c1ccccc1)N1CC2CC(C1)CS(=O)(=O)C2`, the logP is -0.34.

`C[C@@H]1C[C@H]1NC(=O)c1ccccc1` gave a logP of 1.83.

As to `O=C(c1ccccc1)N1CC2CCC1C2` (stereo not given), the logP is 1.65.

As for `O=C(NC1CCCC(F)(F)C1)c1ccccc1` (stereo not given), the logP is 2.31.

Turning to `O=C(N[C@H]1C[C@@H]2[C@H](C1)C2(F)F)c1ccccc1`, the logP amounted to 2.47.

For `O=C(N[C@H]1C[C@@H]2C[C@@H]2C1)c1ccccc1`, the lipophilicity (logP) was 2.19.

The record behind these values is the SangsterLogP compilation.
